Data published in patent publication US11440904B2, “Substituted pyrimidines, pharmaceutical compositions and therapeutic methods thereof” (priority 2017, dated 2022).
One block for each molecule: values may come before it.

What was measured:
MDA-MB-231 cells = experiment: Cancer cell growth inhibition, MDA-MB-231; format: cell-based; details: Homo sapiens, 72 hr, cell viability
Procedure: (§1) In order to test certain compounds of Compounds 1 to 24 for cancer cell growth inhibition, a leukemia cancer cell line EOL-1, and triple negative breast cancer cell line MDA-MB-231 was used.
(§2) EOL-1 and MDA-MB-231 cells were cultured in a RPMI-1640 cell culture medium supplemented with 10% fetal bovine serum (FBS) and 1% penicillin/streptomycin (Gibco BRL).
(§3) The cancer cell lines stored in a liquid nitrogen tank were each quickly thawed at 37° C. water bath, and centrifuged to remove the DMSO in the freezing medium. The resulting cell pellet was mixed with a culture medium, incubated in a culture flask at 37° C. under 5% CO2 for 2 to 3 days. The EOL-1 cells were sub-cultured by 1:5˜10 dilution in fresh culture medium. For MD-MB-231 cells, the culture medium was removed and the remaining cells were washed with PBS (Phosphate Buffered Saline) and trypsinized by trypsin-EDTA. The detached cells were sub-cultured by 1:5˜10 dilution in fresh culture medium.
(§4) For the cell growth inhibition assay, the cells were seeded in 96-well cell culture plates at 5×10^4 cells/well for EOL-1 and 5×10^3 cells/well for MDA-MB-231 cells in 50 μL and incubated at 37° C. under 5% CO2 for 3 to 6 hr. before the compounds were added.
(§5) Certain compounds of Compounds 1-24 were dissolved in dimethylsulfoxide (DMSO) to a concentration of 10 mM. The DMSO solution containing test compound was diluted with a culture medium to a final concentration of 600 μM, and then diluted 100 times to 6 μM as top dose followed by 1:3 serial dilutions, and then add 50 μL diluted compounds to the 50 μL cells, with a final top dose at 3 μM and the plate was incubated at 37° C. under 5% CO2 for 72 hr. The cell viability was determined by Cell Meter™ Fluorimetric Cell Cytotoxicity Assay Kit (AAT Bioquest) according to the manufacturer's instructions. Briefly, thaw and warm up the Assay Solution (Component A) to 37° C., and mix it thoroughly. Add 20 μL/well (96-well plate) of Assay Solution (Component A). Mix the reagents by shaking the plate gently for 30 seconds. Incubate the cells in a 37° C., 5% CO2 incubator for 1-24 hr., protected from light. Monitor the fluorescence intensity (bottom read) at Ex/Em=540/590 nm. Alternatively, read the O.D. at 570 nm (the reference wavelength should be 600 nm) to determine the cell viability in each well.

EOL-1 cells = experiment: Cancer cell growth inhibition, EOL-1; format: cell-based; details: Homo sapiens, EOL1, 72 hr, cell viability
Procedure: as §1, §2, §3, §4, §5

[1] = molecular target: BTK phosphorylation at tyrosine 223 (Homo sapiens (Human), UniProt Q06187); experiment: Immunoblot analysis of phospho-BTK(Y223) in Ramos cells; format: cell-based; details: 1 hr treatment, anti-IgM stimulation, western blot
BTK phosphorylation at tyrosine 223, sequence (Q06187 whole entry): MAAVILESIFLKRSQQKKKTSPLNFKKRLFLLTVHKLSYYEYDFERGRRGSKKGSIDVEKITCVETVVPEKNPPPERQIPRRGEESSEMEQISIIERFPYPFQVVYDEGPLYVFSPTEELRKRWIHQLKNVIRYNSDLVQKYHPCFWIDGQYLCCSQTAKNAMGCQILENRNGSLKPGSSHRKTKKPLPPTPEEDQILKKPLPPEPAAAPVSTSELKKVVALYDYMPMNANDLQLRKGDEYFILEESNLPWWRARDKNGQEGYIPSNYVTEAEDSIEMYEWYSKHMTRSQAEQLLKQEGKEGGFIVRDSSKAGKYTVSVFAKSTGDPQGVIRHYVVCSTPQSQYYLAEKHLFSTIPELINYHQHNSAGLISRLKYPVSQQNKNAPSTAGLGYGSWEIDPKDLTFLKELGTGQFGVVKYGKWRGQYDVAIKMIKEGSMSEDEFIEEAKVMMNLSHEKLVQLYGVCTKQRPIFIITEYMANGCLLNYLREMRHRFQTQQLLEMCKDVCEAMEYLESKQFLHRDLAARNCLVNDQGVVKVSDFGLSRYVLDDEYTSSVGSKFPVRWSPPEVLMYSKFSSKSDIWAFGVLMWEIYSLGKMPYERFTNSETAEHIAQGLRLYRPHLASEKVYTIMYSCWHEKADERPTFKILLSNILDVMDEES
Procedure: Ramos cells were cultured in RPMI-1640 medium with 10% fetal bovine serum (FBS) and 1% penicillin/streptomycin (Gibco BRL). Before the assay, Ramos cells were counted and seeded at 1×10^6 cells/mL, cultured overnight in RPMI-1640 medium with 10% FBS, the cells were centrifuged at 950 rpm for 10 min., then 1˜2×10^6 cells were split into each tube in 300 μL medium. The cells were treated with certain compounds of Compound 1-24 at 0˜3 μM for 1 hr. in 37° C., then the cells were stimulated with 10 μg/mL of anti-IgM (BioLegend) for 5 min., followed by 3 min. spin at 2000 rpm. After aspirating the supernatant, 60 μL of RIPA lysis buffer (50 mM Tris-HCl, 1 mM EDTA, 1% NP-40, 0.5% sodium deoxycholate, and 0.1% SDS, pH 7.4, 150 mM NaCl, 1 mM Na3VO4) was added to the cell pellet to lyse the cells on ice for 30 min. After spin at 10,000 rpm for 5 min., 60 μL of the cell lysate was transferred to a fresh tube, and 20 μL of 4× LDS buffer was added to the tube. The samples were boiled on a 100° C. heat block for 10 min. 25 μL lysate was loaded on to SDS-PAGE gel (NuPAGE™ Novex™ 4-12% Bis-Tris Midi Protein Gels, cat. no. WG1402BOX, ThermoFisher) for western blotting analysis per the manufacturer's instructions. Antibodies used for immunoblot analysis include Btk and p-Btk(Y223) (cat. no. 3553 and 5082; Cell Signaling Technology, Beverly, Mass.). p-Btk(Y223) (cat. no. GTX61791; GeneTex, Inc., Irvine, Calif.). Membranes were detected using infrared fluorescence dye (IRDye® 800CW Donkey anti-Rabbit IgG (H+L), cat. no. P/N 925-32213; IRDye® 680RD Donkey anti-Mouse IgG (H+L), cat. no. P/N 925-68072 and scanned on a LiCor Odyssey scanner (LiCor Biosciences, Lincoln, Nebr.).

FAK = FAK (Homo sapiens (Human), UniProt Q05397); experiment: 33P ATP HotSpot kinase assay, FAK; details: read-out: IC50 FAK, 10 μM ATP
FAK, sequence (Q05397 whole entry): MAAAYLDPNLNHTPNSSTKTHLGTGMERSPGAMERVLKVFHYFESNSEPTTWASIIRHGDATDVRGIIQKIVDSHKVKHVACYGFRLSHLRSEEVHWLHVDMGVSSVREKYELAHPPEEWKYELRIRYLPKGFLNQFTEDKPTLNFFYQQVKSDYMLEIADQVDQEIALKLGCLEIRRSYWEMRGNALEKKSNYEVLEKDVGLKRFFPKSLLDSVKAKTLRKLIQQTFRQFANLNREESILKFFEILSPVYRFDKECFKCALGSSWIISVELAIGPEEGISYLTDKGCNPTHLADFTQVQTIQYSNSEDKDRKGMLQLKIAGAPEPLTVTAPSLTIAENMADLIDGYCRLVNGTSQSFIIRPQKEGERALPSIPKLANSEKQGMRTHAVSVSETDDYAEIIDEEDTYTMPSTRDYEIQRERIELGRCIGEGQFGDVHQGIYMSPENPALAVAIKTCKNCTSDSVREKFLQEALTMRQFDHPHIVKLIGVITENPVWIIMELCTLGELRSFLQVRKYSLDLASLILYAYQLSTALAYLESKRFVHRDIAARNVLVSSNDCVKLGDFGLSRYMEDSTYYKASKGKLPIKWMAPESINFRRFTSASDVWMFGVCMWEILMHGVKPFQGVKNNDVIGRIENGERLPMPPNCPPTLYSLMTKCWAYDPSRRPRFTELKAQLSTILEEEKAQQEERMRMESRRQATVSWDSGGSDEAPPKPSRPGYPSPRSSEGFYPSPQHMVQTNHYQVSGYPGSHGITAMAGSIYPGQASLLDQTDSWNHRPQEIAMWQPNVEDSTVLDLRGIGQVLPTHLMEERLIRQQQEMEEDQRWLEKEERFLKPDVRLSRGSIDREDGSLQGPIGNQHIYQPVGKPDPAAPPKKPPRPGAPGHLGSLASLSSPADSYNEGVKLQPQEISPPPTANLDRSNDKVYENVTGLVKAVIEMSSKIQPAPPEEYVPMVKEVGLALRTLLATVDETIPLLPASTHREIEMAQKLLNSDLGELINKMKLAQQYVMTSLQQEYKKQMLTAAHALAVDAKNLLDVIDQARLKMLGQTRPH

ITK = ITK (Homo sapiens (Human), UniProt Q08881); experiment: 33P ATP HotSpot kinase assay, ITK; format: biochemical; details: 10 μM ATP
ITK, sequence (Q08881 whole entry): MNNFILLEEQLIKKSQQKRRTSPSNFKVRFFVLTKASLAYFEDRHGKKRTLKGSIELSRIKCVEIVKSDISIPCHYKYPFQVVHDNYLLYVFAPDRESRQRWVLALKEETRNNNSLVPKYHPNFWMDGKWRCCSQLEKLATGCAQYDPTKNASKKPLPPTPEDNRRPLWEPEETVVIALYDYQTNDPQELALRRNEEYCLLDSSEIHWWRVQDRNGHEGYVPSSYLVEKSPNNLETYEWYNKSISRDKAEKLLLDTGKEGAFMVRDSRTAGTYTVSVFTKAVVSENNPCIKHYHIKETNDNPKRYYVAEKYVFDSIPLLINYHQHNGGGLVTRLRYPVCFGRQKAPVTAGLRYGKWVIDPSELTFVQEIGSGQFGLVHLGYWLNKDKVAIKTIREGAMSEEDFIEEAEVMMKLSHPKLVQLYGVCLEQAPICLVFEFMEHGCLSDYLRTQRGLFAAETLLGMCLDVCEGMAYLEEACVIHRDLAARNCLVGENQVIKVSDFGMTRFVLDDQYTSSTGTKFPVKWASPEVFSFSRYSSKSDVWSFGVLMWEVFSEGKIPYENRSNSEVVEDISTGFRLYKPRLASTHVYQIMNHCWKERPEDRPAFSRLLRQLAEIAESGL
Procedure: (§6) (See, e.g., Ma, et al, 2008 Expert Opin Drug Discov. 3(6): 607-621.)
(§7) Each of Compound-1 to Compound-24 was measured for its inhibitory activity on TEC family kinases, BMX and ITK. The measurement was carried out in the same process as described above, BMX, ITK enzymes were used.

BTK wt = BTK wt (Homo sapiens (Human), UniProt Q06187); experiment: 33P ATP HotSpot kinase assay, BTK wt; format: biochemical; details: 10 μM ATP
BTK wt, sequence (Q06187 whole entry): as the sequence (Q06187 whole entry) above
Source text: as §6

BMX = BMX (Homo sapiens (Human), UniProt P51813); experiment: 33P ATP HotSpot kinase assay, BMX; format: biochemical; details: 10 μM ATP
BMX, sequence (P51813 whole entry): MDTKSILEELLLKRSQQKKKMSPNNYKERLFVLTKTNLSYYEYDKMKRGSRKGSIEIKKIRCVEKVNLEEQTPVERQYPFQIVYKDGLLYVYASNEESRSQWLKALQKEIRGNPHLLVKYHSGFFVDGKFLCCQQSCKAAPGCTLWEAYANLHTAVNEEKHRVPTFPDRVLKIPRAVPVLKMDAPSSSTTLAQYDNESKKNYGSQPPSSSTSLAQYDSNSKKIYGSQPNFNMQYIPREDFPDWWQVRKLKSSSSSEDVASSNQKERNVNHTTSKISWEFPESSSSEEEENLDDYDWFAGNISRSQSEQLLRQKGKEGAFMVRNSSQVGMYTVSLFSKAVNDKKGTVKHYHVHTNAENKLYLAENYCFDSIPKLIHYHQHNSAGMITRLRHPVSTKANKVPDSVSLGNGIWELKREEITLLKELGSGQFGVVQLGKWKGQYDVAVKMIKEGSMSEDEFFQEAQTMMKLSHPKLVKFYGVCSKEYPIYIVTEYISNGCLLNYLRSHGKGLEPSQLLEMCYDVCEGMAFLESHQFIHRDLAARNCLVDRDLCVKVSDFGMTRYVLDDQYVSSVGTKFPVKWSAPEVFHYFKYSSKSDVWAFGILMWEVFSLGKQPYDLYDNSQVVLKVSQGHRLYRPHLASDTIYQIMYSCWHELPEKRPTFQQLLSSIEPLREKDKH
Procedure: as §6, §7

EGFR wt = EGFR wt (Homo sapiens (Human), UniProt P00533); experiment: 33P ATP HotSpot kinase assay, EGFR wt; format: biochemical; details: 10 μM ATP
EGFR wt, sequence (P00533 25-1210): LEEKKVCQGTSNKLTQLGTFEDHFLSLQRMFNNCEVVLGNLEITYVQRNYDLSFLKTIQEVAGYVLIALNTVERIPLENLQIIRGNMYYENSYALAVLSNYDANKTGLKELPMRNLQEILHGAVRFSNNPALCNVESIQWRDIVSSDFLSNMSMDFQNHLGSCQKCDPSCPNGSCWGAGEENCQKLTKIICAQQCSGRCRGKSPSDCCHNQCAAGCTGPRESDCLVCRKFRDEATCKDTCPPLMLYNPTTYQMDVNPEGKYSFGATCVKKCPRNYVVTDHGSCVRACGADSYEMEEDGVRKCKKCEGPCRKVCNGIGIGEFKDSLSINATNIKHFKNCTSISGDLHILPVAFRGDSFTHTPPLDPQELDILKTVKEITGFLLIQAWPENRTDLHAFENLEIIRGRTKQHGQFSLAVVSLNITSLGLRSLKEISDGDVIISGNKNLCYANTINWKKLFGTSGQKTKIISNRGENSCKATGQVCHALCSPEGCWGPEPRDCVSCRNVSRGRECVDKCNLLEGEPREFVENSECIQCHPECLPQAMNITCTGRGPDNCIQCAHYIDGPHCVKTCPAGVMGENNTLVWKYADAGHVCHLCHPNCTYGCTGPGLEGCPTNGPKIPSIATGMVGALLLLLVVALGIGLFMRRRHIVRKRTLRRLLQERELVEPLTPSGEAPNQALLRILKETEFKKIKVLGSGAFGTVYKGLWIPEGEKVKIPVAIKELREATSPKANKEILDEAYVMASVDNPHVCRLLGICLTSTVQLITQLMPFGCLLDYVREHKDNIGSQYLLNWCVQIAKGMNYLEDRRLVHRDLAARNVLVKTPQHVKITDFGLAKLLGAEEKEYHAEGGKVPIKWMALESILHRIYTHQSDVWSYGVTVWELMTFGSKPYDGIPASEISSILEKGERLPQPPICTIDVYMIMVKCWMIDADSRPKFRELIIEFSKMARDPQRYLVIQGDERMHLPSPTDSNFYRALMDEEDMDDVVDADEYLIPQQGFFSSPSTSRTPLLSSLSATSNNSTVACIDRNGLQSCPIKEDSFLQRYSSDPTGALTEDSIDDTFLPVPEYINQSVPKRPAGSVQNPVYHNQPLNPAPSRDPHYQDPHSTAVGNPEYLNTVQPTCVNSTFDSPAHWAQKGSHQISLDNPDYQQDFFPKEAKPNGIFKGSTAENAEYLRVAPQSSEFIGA

IC50 (BTK wt): 33.3 nM
Structure (SMILES): C=CC(=O)Nc1cc(C)ccc1Nc1nc(Nc2ccc3c(c2)OCCOCCOCCO3)nc2[nH]ncc12 [Compound-26, N-[5-methyl-2-[[6-(2,5,8,11-tetraoxabicyclo[10.4.0]hexadeca-1(12),13,15-trien-14-ylamino)-1H-pyrazolo[3,4-d]pyrimidin-4-yl]amino]phenyl]prop-2-enamide]

IC50 (BTK wt): 16.8 nM
Structure (SMILES): CC(=O)Nc1cc(C)ccc1Nc1nc(Nc2ccc3c(c2)OCCOCCOCCO3)nc2[nH]cnc12 [Compound-27, N-[5-methyl-2-[[2-(2,5,8,11-tetraoxabicyclo[10.4.0]hexadeca-1(12),13,15-trien-14-ylamino)-9H-purin-6-yl]amino]phenyl]acetamide]

IC50 (BTK wt): 9.37 nM
Structure (SMILES): CC(=O)Nc1cc(F)ccc1Nc1nc(Nc2ccc3c(c2)OCCOCCOCCO3)nc2[nH]cnc12 [Compound-28, N-[5-fluoro-2-[[2-(2,5,8,11-tetraoxabicyclo[10.4.0]hexadeca-1(12),13,15-trien-14-ylamino)-9H-purin-6-yl]amino]phenyl]acetamide]

IC50 (BTK wt): 67.1 nM
Structure (SMILES): CC(=O)Nc1cc(C(F)(F)F)ccc1Nc1nc(Nc2ccc3c(c2)OCCOCCOCCO3)nc2[nH]cnc12 [Compound-29, N-[2-[[2-(2,5,8,11-tetraoxabicyclo[10.4.0]hexadeca-1(12),13,15-trien-14-ylamino)-9H-purin-6-yl]amino]-5-(trifluoromethyl)phenyl]acetamide]

IC50 (FAK): > 1000 nM
IC50 (BTK wt): 613 nM
Structure (SMILES): C=CC(=O)Nc1cccc(-c2nc(Nc3ccc4c(c3)OCCOCCOCCO4)ncc2F)c1 [Compound-30, N-[3-[5-fluoro-2-(2,5,8,11-tetraoxabicyclo[10.4.0]hexadeca-1(12),13,15-trien-14-ylamino)pyrimidin-4-yl]phenyl]prop-2-enamide]

IC50 (BTK wt): 198 nM
Structure (SMILES): CN([C@@H]1c2ccccc2C[C@H]1Oc1nc(Nc2ccc3c(c2)OCCOCCOCCO3)nc2[nH]cnc12)S(C)(=O)=O [Compound-31, N-methyl-N-[(1R,2R)-2-[[2-(2,5,8,11-tetraoxabicyclo[10.4.0]hexadeca-1(12),13,15-trien-14-ylamino)-9H-purin-6-yl]oxy]indan-1-yl]methanesulfonamide]

IC50 (BTK wt): > 10000 nM
Structure (SMILES): CN([C@@H]1c2ccccc2C[C@H]1Oc1cc(Nc2ccc3c(c2)OCCOCCOCCO3)ncc1C(F)(F)F)S(C)(=O)=O [Compound-32, N-methyl-N-[(1R,2R)-2-[[2-(2,5,8,11-tetraoxabicyclo[10.4.0]hexadeca-1(12),13,15-trien-14-ylamino)-5-(trifluoromethyl)-4-pyridyl]oxy]indan-1-yl]methanesulfonamide]

The next lines start with the molecule.

Structure (SMILES): C=CC(=O)N1CCC[C@@H](Nc2nc(Nc3ccc(OCCCOC4(CC)OCC(C)(C)CO4)cc3)ncc2F)C1 [Compound-1, 1-[(3R)-3-[[2-[4-[3-[(2-ethyl-5,5-dimethyl-1,3-dioxan-2-yl)oxy]propoxy]anilino]-5-fluoro-pyrimidin-4-yl]amino]-1-piperidyl]prop-2-en-1-one]
IC50 (MDA-MB-231 cells): > 3000 nM
IC50 (EOL-1 cells): > 3000 nM
EC50 [1]: 100 to 1000 nM

Structure (SMILES): CCC(=O)N1CCC[C@@H](Nc2nc(Nc3ccc4c(c3)OCCOCCOCCO4)nc3[nH]cnc23)C1 [Compound-4, 1-[(3R)-3-[[2-(2,5,8,11-tetraoxabicyclo[10.4.0]hexadeca-1(12),13,15-trien-14-ylamino)-9H-purin-6-yl]amino]-1-piperidyl]propan-1-one]
IC50 (FAK): 1150 nM
IC50 (ITK): 1450 nM
IC50 (BTK wt): 144 nM
IC50 (BMX): 19.6 nM
EC50 [1]: 100 to 1000 nM

Structure (SMILES): C=CC(=O)Nc1cccc(Nc2nc(Nc3ccc4c(c3)OCCOCCOCCO4)ncc2F)c1 [Compound-6, N-[3-[[5-fluoro-2-(2,5,8,11-tetraoxabicyclo[10.4.0]hexadeca-1(12),13,15-trien-14-ylamino)pyrimidin-4-yl]amino]phenyl]prop-2-enamide]
IC50 (FAK): > 1000 nM
IC50 (ITK): < 100 nM
IC50 (BTK wt): < 100 nM
IC50 (BMX): < 100 nM
IC50 (EGFR wt): 732 nM
EC50 [1]: < 100 nM

Structure (SMILES): CCC(=O)Nc1cccc(Nc2nc(Nc3ccc4c(c3)OCCOCCOCCO4)nc3[nH]cnc23)c1 [Compound-8, N-[3-[[2-(2,5,8,11-tetraoxabicyclo[10.4.0]hexadeca-1(12),13,15-trien-14-ylamino)-9H-purin-6-yl]amino]phenyl]propanamide]
IC50 (FAK): 1130 nM
IC50 (ITK): 1290 nM
IC50 (BTK wt): 88.8 nM
IC50 (BMX): 46.4 nM
IC50 (EGFR wt): > 1000 nM
EC50 [1]: 100 to 1000 nM

Structure (SMILES): CN([C@@H]1CCCC[C@H]1Oc1nc(Nc2ccc3c(c2)OCCOCCOCCO3)nc2[nH]ccc12)S(C)(=O)=O [Compound-16, N-methyl-N-[(1R,2R)-2-[[2-(2,5,8,11-tetraoxabicyclo[10.4.0]hexadeca-1(16),12,14-trien-14-ylamino)-7H-pyrrolo[2,3-d]pyrimidin-4-yl]oxy]cyclohexyl]methanesulfonamide]
IC50 (FAK): 34.9 nM
IC50 (MDA-MB-231 cells): 3000 nM
IC50 (BTK wt): > 1000 nM
IC50 (EOL-1 cells): 2000 nM
IC50 (EGFR wt): > 1000 nM

Structure (SMILES): CN(C1CCCC1Oc1nc(Nc2ccc3c(c2)OCCOCCOCCO3)nc2[nH]ccc12)S(C)(=O)=O (stereo not drawn) [Compound-18, N-methyl-N-[2-[[2-(2,5,8,11-tetraoxabicyclo[10.4.0]hexadeca-1(16),12,14-trien-14-ylamino)-7H-pyrrolo[2,3-d]pyrimidin-4-yl]oxy]cyclopentyl]methanesulfonamide]
IC50 (MDA-MB-231 cells): 1500 nM
IC50 (BTK wt): > 1000 nM
IC50 (EOL-1 cells): 750 nM
IC50 (EGFR wt): > 1000 nM

Structure (SMILES): c1cc(Nc2nc(Nc3ccc4c(c3)OCCOCCOCCO4)nc3[nH]cnc23)c2cc[nH]c2c1 [Compound-22, N6-(1H-indol-4-yl)-N2-(2,5,8,11-tetraoxabicyclo[10.4.0]hexadeca-1(12),13,15-trien-14-yl)-9H-purine-2,6-diamine]
IC50 (FAK): 42.4 nM
IC50 (MDA-MB-231 cells): > 3000 nM
IC50 (BTK wt): 21.4 nM
IC50 (EOL-1 cells): 1200 nM
IC50 (EGFR wt): > 1000 nM

Structure (SMILES): c1cc(Nc2nc(Nc3ccc4c(c3)OCCOCCOCCO4)nc3[nH]cnc23)c2[nH]ccc2c1 [Compound-23, N6-(1H-indol-7-yl)-N2-(2,5,8,11-tetraoxabicyclo[10.4.0]hexadeca-1(12),13,15-trien-14-yl)-9H-purine-2,6-diamine]
IC50 (FAK): 257 nM
IC50 (BTK wt): 62.8 nM
IC50 (EGFR wt): > 1000 nM
